Measured values as given in patent US20080292619A1, “Pharmaceutical Composition Containing Meltrin Antagonist” (MOCHIDA PHARMACEUTICAL CO., LTD., priority 2004, published 2008).
In the oligonucleotide strings, read from the 5' end, every base follows the letter of its sugar. An asterisk marks phosphorothioate; unmarked linkages are phosphodiester. Other units and linkages are bracketed, terminal groups are in braces. A string of capitals states the bases alone. d = 2'-deoxy (DNA)

What follows are substances tested on human meltrin α RNA (assay: Suppression of human meltrin α expression by antisense compound in RD cell (real time PCR)). Conditions: 200 nM; RD cell; corrected by GAPDH.
Assay type: cell-based
Procedure: First, RD cell (ATCC) was suspended in DMEM containing 10% fetal bovine serum (FBS, SIGMA), and the suspension was inoculated in 6 well culture plate at 2.5×10^5 cells/well/2 mL. After incubating overnight at 37° C. in the presence of 5% CO2, the cells were washed twice with serum-free DMEM, and Opti-MEM medium (GIBCO) was added at 800 μL/well.
Gene transfection reagent Lipofectin (Invitrogen) was diluted with Opti-MEM to 20 μg/mL, and the dilution was allowed to stand at room temperature for 30 minutes. Next, the antisense oligodeoxynucleotide synthesized as described above was heated at 90° C. for 3 minutes, and after quenching on ice, diluted with Opti-MEM to a concentration 10 times higher than the final concentration. Equal amounts of the Lipofectin in Opti-MEM and the antisense oligo DNA in Opti-MEM were mixed, and the mixture was incubated at room temperature for 15 minutes and added to 6 well plate at 200 μL/well.
The culture was incubated at 37° C. for 4 hours in the presence of 5% CO2, and the culture supernatant containing the Lipofectin was removed. The cells were washed twice with serum-free DMEM, and after adding 1 mL/well of Opti-MEM and incubating for 18 hours at 37° C. in the presence of 5% CO2, the cells were subjected to the measurement of the level of expression of meltrin α RNA.
After the washing, RNA was isolated from the cell by using RNA isolation kit (RNeasy Micro Kit, QIAGEN) according to the protocol of the kit, and RNA concentration was determined by measuring absorbance at a wavelength of 260 nm with a spectrophotometer (Nano prop, LMS Co., Ltd.) (1OD=40 μg/mL). After the quantitation, the RNA was prepared to a concentration of 0.1 μg/μL by using DEPC-treated water.
0.35 μg of the isolated RNA, and 3.5 μL of 10× TaqMan buffer, 7.7 μL of 25 mM MgCl2, 7.0 μL of 2.5 mM each dNTP Mix, 1.75 μL of 50 μM Random Hexamers, 0.7 μL of 20 U/μL RNase inhibitor, and 0.9 μL of 50 U/μL MultiScribe Reverse Transcriptase (all purchased from Applied Biosystems) were mixed, and water was added to make up the total volume to 35 μL. This solution was maintained at 25° C. for 10 minutes, at 48° C. for 30 minutes, and at 95° C. for 5 minutes, and reverse transcription was conducted to synthesize cDNA.
A solution in total volume of 20 μL containing 10 μL of TaqMan Universal PCR Master Mix, 0.4 μL of 10 μM TaqMan MGB Probe (sequence 5′FAM-caccgaaggacaatccca-MGB-3′: Applied Biosystems), 0.1 μL of 50 μM Forward primer (sequence ggaagccgccagattcct) for detecting meltrin α, 0.1 μL of 50 μM Reverse primer (sequence […]) for detecting meltrin α (all purchased from Sigma-Genosys), 5 μL of the cDNA solution of (3), and 4.4 μL of water was prepared, and after maintaining the solution at 50° C. for 2 minutes and at 95° C. for 10 minutes, PCR was conducted by repeating 40 cycles of 95° C. for 15 seconds and 60° C. for 1 minute in ABI Prism 7000.
The amount of the human meltrin α RNA was measured by conducting real time PCR by using the plasmid containing the cDNA coding for the human meltrin α for the template to generate the standard curve, and calculating RNA copy number of the meltrin α in each sample. The level of expression of GAPDH was also determined by using a primer and probe set for real time PCR of human GAPDH (Pre-Developed TaqMan Assay Reagents Human GAPDH (20×) (Cat# 4310884E, Applied Biosystems).
The results of the real time PCR of the meltrin α was corrected by the level of expression of the GAPDH to calculate the suppression rate. […]
“H061: agctgcgcattgtcatggga (dA*dG*dC*dT*dG*dC*dG*dC*dA*dT*dT*dG*dT*dC*dA*dT*dG*dG*dG*dA; antisense)” was tested, and the “suppression rate of expression, 200 nM” value was “+ (“+” when the suppression rate was at least 30%)”.
With “H063: catgccgatggtggtccctt (dC*dA*dT*dG*dC*dC*dG*dA*dT*dG*dG*dT*dG*dG*dT*dC*dC*dC*dT*dT; antisense)” the “suppression rate of expression, 200 nM” value was “++ (“++” when the suppression rate was at least 50%)”.
In the case of “H065: ccccagactggtctgccgtg (dC*dC*dC*dC*dA*dG*dA*dC*dT*dG*dG*dT*dC*dT*dG*dC*dC*dG*dT*dG; antisense)”, the “suppression rate of expression, 200 nM” value is reported as “++ (“++” when the suppression rate was at least 50%)”.
For “H068: gctcatgtgccagggtcacg (dG*dC*dT*dC*dA*dT*dG*dT*dG*dC*dC*dA*dG*dG*dG*dT*dC*dA*dC*dG; antisense)”, the “suppression rate of expression, 200 nM” value was “+ (“+” when the suppression rate was at least 30%)”.
In the case of “H069: catcccgaaattgtggccca (dC*dA*dT*dC*dC*dC*dG*dA*dA*dA*dT*dT*dG*dT*dG*dG*dC*dC*dC*dA; antisense)”, the “suppression rate of expression, 200 nM” value is reported as “+ (“+” when the suppression rate was at least 30%)”.
With “H070: ctgtccagtgtgtcatgatt (dC*dT*dG*dT*dC*dC*dA*dG*dT*dG*dT*dG*dT*dC*dA*dT*dG*dA*dT*dT; antisense)” the “suppression rate of expression, 200 nM” value was “+ (“+” when the suppression rate was at least 30%)”.
With “H071: ccatttgacagctacagccc (dC*dC*dA*dT*dT*dT*dG*dA*dC*dA*dG*dC*dT*dA*dC*dA*dG*dC*dC*dC; antisense)” the “suppression rate of expression, 200 nM” value was “+ (“+” when the suppression rate was at least 30%)”.
In the case of “H072: gcagcctcctttctcaaccg (dG*dC*dA*dG*dC*dC*dT*dC*dC*dT*dT*dT*dC*dT*dC*dA*dA*dC*dC*dG; antisense)”, the “suppression rate of expression, 200 nM” value is reported as “+ (“+” when the suppression rate was at least 30%)”.
“H074: acaccatgggaaatgggtac (dA*dC*dA*dC*dC*dA*dT*dG*dG*dG*dA*dA*dA*dT*dG*dG*dG*dT*dA*dC; antisense)” was tested, and the “suppression rate of expression, 200 nM” value was “+ (“+” when the suppression rate was at least 30%)”.
In the case of “H075: cttcctgctgcaactgctga (dC*dT*dT*dC*dC*dT*dG*dC*dT*dG*dC*dA*dA*dC*dT*dG*dC*dT*dG*dA)”, the “suppression rate of expression, 200 nM” value is reported as “+ (“+” when the suppression rate was at least 30%)”.

Same assay, conditions: 200 nM; chimeric 2′-methoxy antisense oligonucleotides; RD cell
For “H075-OMe1: chimeric antisense oligonucleotide TGCTGcaactgctgaACACC, uppercase 2′-methoxy nucleotides, lowercase phosphorothioate nucleotides (TGCTGCAACTGCTGAACACC; 2'-O-methyl at 1, 2, 3, 4, 5, 16, 17, 18, 19, 20, other sugars, backbone and T or U not given here; lowercase gap nucleotides phosphorothioate)”, the “suppression rate of expression, 200 nM” value was “+ (“+” when the suppression rate was at least 30%)”.
For “H075-OMe2: chimeric antisense oligonucleotide AAGTCcttcctgctgCAACT, uppercase 2′-methoxy nucleotides, lowercase phosphorothioate nucleotides (AAGTCCTTCCTGCTGCAACT; 2'-O-methyl at 1, 2, 3, 4, 5, 16, 17, 18, 19, 20, other sugars, backbone and T or U not given here; lowercase gap nucleotides phosphorothioate)”, the “suppression rate of expression, 200 nM” value was “+ (“+” when the suppression rate was at least 30%)”.
For “H076-OMe1: chimeric antisense oligonucleotide GCTGGtctccaagtcCTTCC, uppercase 2′-methoxy nucleotides, lowercase phosphorothioate nucleotides (GCTGGTCTCCAAGTCCTTCC; 2'-O-methyl at 1, 2, 3, 4, 5, 16, 17, 18, 19, 20, other sugars, backbone and T or U not given here; lowercase gap nucleotides phosphorothioate)”, the “suppression rate of expression, 200 nM” value was “++ (“++” when the suppression rate was at least 50%)”.
